The assay concerns MDA-MB-468 breast. The experiment in a line: NCI-60 cell line screen, 48 h.

“And” between values parts separate entries of the source, which are not always exact repeats. Equal values may be shown once.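 Assay format: 96-well plates, 48-hour exposure. Here, GI50 denotes the concentration required for 50% inhibition of growth. The concentration for full growth arrest is given as TGI.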

For `N#CSc1ncnc2nc[nH]c12`, the GI50 was 0.522 µM and the TGI was over 100 µM.

As to `COc1cc2c(cc1OC)-c1ccc3cc4c(cc3c1N(CCN1CCCC1)C2)OCO4`, the GI50 is 0.653 µM and the TGI was found to be 2.2 µM.

For the compound `CC(C)(O)c1ccc(N2CCN(c3nnc(Cc4ccccc4)c4ccccc34)CC2)nc1`, the GI50 is 2.78 µM and the TGI turned out to be 12.8 µM.

Take `CCc1ccc(NC(=O)Nc2c[nH]c3ccccc23)cc1`: the GI50 was 18.8 µM and the TGI was over 56.5 µM.

Regarding `Cc1cc(N2CCCCC2)nc(N(CCNc2ccnc3cc(Cl)ccc23)Cc2ccco2)n1`, the GI50 is 1.74 µM and the TGI came out at 3.87 µM.

For the compound `CCN1C(=O)N(CC)C2C1NN=c1s/c(=C3\C(=O)N(C(C)C)c4ccccc43)c(=O)n12` (stereo not given), the GI50 was 0.321 µM and the TGI was 5.58 µM.

`O=C(CCN1CCCC1)Nc1ccc2c(NCc3ccc(F)cc3)c3ccccc3nc2c1`: the GI50 was 0.318 µM and the TGI was determined as 1.4 µM.

`CC12CCC=CC1CCC1C2CCC2(C)C(c3ccc(=O)oc3)CCC12O` (stereo not given): the GI50 was 0.313 µM and the TGI is 1.22 µM.

Turning to `CN(C)c1ccc2nc3ccc(=[N+](C)C)cc-3oc2c1`, the GI50 was 0.62 µM and the TGI was determined as 3.58 µM.

As to `COc1ccc(-c2ccc(-c3ccc(C(=N)N)nc3)s2)cc1`, the GI50 is 1.63 µM and the TGI was determined as 3.11 µM.

Take `Fc1ccc(-c2nc3n(c2-c2ccncc2)CCS3)cc1`: the GI50 is 4.63 µM and the TGI is over 25 µM.

Turning to `C[C@]12CC[C@H]3[C@@H](CCC4=CC(=O)CC[C@@H]43)[C@@H]1CC[C@@H]2OC(=O)N(CCCl)N=O`, the GI50 is 0.512 µM and the TGI came out at 5.7 µM.

For the compound `CC1=C(C(=O)OCc2ccccc2)C(c2ccc3c(c2)OCO3)n2c(nc3ccccc32)N1` (stereo not given), the GI50 was 0.247 µM and the TGI is 39.5 µM.

Regarding `C[C@]12CC[C@H]3[C@@H](CC=C4C[C@@H](O)CC[C@@]43C)[C@@H]1CC[C@@H]2[C@](C)(O)CCc1cccnc1`, the GI50 was 1.91 µM and the TGI was over 100 µM.

Turning to `CCCC(=O)NC(c1cccnc1)c1ccc2c(C)ccnc2c1O` (stereo not given), the GI50 is 1.68 µM and the TGI was 6.91 µM.

Regarding `O=C(Nc1cccc(Cl)c1)Nc1ncc(CCNc2ncnc3ccsc23)s1`, the GI50 was 0.196 µM and 0.952 µM; the TGI is 8.39 µM and > 10 µM.

On to `COc1ccc(Cn2nc(-c3cc(OC)c(OC)c(OC)c3)c3c2CCc2cnoc2-3)cc1OC`, for which the GI50 is 1.94 µM and the TGI was determined as 8.84 µM.

Turning to `CC1=C(C)C(=O)C(Nc2cccc(C(F)(F)F)c2)=C(Cl)C1=O`, the GI50 is 1.24 µM and the TGI stood at 2.94 µM.

As for `O=C1C(Cl)=C(N/N=c2/[nH][nH]/c(=N/NC3=C(Cl)C(=O)c4ccccc4C3=O)c3ccccc23)C(=O)c2ccccc21`, the GI50 is 14.7 µM and the TGI worked out at 32.9 µM.

Turning to `CCn1c(-c2nonc2N)nc2cncc(C(=O)N3CCNCC3)c21`, the GI50 was over 25 µM and the TGI was over 25 µM.

Take `CCN(CC)CCOc1ccc(C(=C(C)c2ccc(Cl)cc2)c2ccc(OCCN(CC)CC)cc2)cc1`: the GI50 is 0.556 µM and the TGI worked out at 1.1 µM.

`CCCN1C(=O)/C(=c2\sc3n(c2=O)C2C(NN=3)N(CC)C(=O)N2CC)c2ccccc21` (stereo not given): the GI50 was 0.464 µM and the TGI was determined as 10.4 µM.

With `OCC1OC(n2ccc3c2ncn2ncnc32)C(O)C1O` (stereo not given), the GI50 is 0.279 µM and the TGI was determined as 3.19 µM.

`COc1cc2nc(Cl)nc(Nc3cccc(C(=O)/C=C/c4ccccc4)c3)c2cc1OC`: the GI50 is 3.39 µM and the TGI was over 100 µM.

As for `c1ccc2nc(Cn3c[n+](Cc4ccc5ccccc5n4)c4ccccc43)ccc2c1`, the GI50 was 0.645 µM and the TGI was determined as 5.44 µM.

As for `CN(C)CCNC(=O)c1cccn2c(=O)c3cc4ccccc4cc3nc12`, the GI50 was 0.299 µM and the TGI was found to be 1.12 µM.

In the case of `CC(=O)/C(N=Nc1ccc2oc(=O)ccc2c1)=C(\C)O`, the GI50 was 2.74 µM and the TGI is 12.7 µM.

For `COc1cc(Cn2cc3c(c2)-c2oncc2CC3)cc(OC)c1OC`, the GI50 was 0.0147 µM and the TGI stood at 0.0541 µM.

`COc1cccc(C2=C(c3cn(C)c4ccccc34)C(=O)NC2=O)c1`: the GI50 was 5.13 µM and the TGI was over 25 µM.

On to `O=C(CCl)c1ccc([N+](=O)[O-])o1`, for which the GI50 was 1.06 µM and the TGI came to 2.77 µM.

`CCCN(Cc1ccc(F)cc1)c1ccc(CO)c(Cl)c1`: the GI50 was 0.0212 µM and the TGI worked out at 0.0625 µM.

For the compound `CCOC(=O)Cc1c[nH]c(=S)[nH]c1=O`, the GI50 was over 100 µM and the TGI is over 100 µM.

On to `N#Cc1ncc(/N=C/c2ccc(N(CCCl)CCCl)cc2)s1`, for which the GI50 is 0.436 µM and the TGI was 3.65 µM.

For `COc1ccc([C@@H]2[C@@H](O)C(=O)N2c2cc(OC)c(OC)c(OC)c2)cc1F`, the GI50 was 0.0269 µM and the TGI is 0.398 µM.

Take `CC1=C2C(=C[C@@](C)(COC(=O)c3ccc(S(=O)(=O)F)cc3)[C@@H]2OC(=O)c2ccc(S(=O)(=O)F)cc2)C(=O)[C@](C)(O)C12CC2`: the GI50 was 0.187 µM and the TGI came to 0.465 µM.

For `CNC(=O)c1cc(N2CCc3cc(NC(=O)Nc4ccc(N5CCN(C)CC5)c(C(F)(F)F)c4)ccc32)ccn1`, the GI50 is 3.68 µM and the TGI was found to be 7.95 µM.

As to `CCN(CC)c1ccc(/C=C/c2cc(C)c3ccccc3n2)cc1`, the GI50 was 3.06 µM and the TGI is 9.02 µM.

As to `NC(=O)[C@H]1CCN(c2ncnc(N)c2F)C[C@@H]1N1CCC[C@@H](Nc2cc(Cl)cc(C(F)(F)F)c2)C1=O`, the GI50 is 11.2 µM and the TGI came out at 34.4 µM.

Regarding `O=S(=O)(c1ccc(NC(=S)NCc2cccnc2)cc1)N1CCCCC1`, the GI50 was 9.8 µM and the TGI worked out at 95.8 µM.

For `COc1cc2cc(Oc3ccc(NC(=O)Nc4ccc(Cl)c(C(F)(F)F)c4)cc3)c(C)nc2cc1OCCN1CCCCC1`, the GI50 is 1.34 µM and the TGI was 2.85 µM.

For the compound `C=C(C)[C@@H]1CC[C@]2(C(=O)NCCCN)CC[C@]3(C)[C@H](CC[C@@H]4[C@@]5(C)CC[C@H](O)C(C)(C)[C@@H]5CC[C@]43C)[C@@H]12`, the GI50 is 12.6 µM and the TGI is 48.5 µM.

On to `N=C(N)c1nn(C2OC(CO)C(O)C2O)c2nc[nH]c(=O)c12` (stereo not given), for which the GI50 was 0.372 µM and the TGI was 1.69 µM.

As to `CCN=C1C=CC(=C(c2ccc(N(C)C)cc2)c2ccc(N(C)C)cc2)c2ccccc21`, the GI50 is 0.047 µM and the TGI turned out to be 0.346 µM.

Consider `O=c1cc(CNc2cc(F)cc(F)c2)c2ccc(I)cc2[nH]1`, for which the GI50 was 0.409 µM and the TGI was over 100 µM.

Regarding `CC[C@H](Nc1nc(N)nc(C)c1C#N)c1nc2cccc(CN(C)c3ncc(C(=O)NO)cn3)c2c(=O)n1-c1ccccc1`, the GI50 was 0.367 µM and the TGI turned out to be 10.5 µM.

The values above are taken from PubChem BioAssay (NCI).
